# Measurements as given in PubChem BioAssay AID1259407 (Chemical Carcinogenesis Research Information System (CCRIS), 2018).
# Calls of active or inactive are those of the source. How the calls were made is not given here.
# Test system: CCRIS mutagenicity, Ames/micronucleus/aberration tests
# Assay: CCRIS mutagenicity studies
compound,measurement,setting,value
CC(=O)Nc1ccc2c(c1)Cc1ccccc1-2,mutagenic call,"Test System: AMES SALMONELLA TYPHIMURIUM, Strain/Indicator: TA1537, Metabolic Activation: NONE, Method: STANDARD PLATE",inactive; negative
same,mutagenic call,"Test System: AMES SALMONELLA TYPHIMURIUM, Strain/Indicator: TA1537, Metabolic Activation: RAT, LIVER, S-9, AROCLOR 1254, Method: SPIRAL ASSAY",inactive; negative
same,mutagenic call,"Test System: AMES SALMONELLA TYPHIMURIUM, Strain/Indicator: TA1537, Metabolic Activation: RAT, LIVER, S-9, PHENOBARBITAL, Method: STANDARD PLATE",active; positive
same,mutagenic call,"Test System: AMES SALMONELLA TYPHIMURIUM, Strain/Indicator: TA1538, Metabolic Activation: NONE, Method: STANDARD PLATE",inactive; negative
same,mutagenic call,"Test System: AMES SALMONELLA TYPHIMURIUM, Strain/Indicator: TA1538, Metabolic Activation: RAT, LIVER, CYTOSOL, 2-ACETYLAMINOFLUORENE, Method: STANDARD PLATE",active; positive
same,mutagenic call,"Test System: AMES SALMONELLA TYPHIMURIUM, Strain/Indicator: TA1538, Metabolic Activation: RAT, LIVER, CYTOSOL, AROCLOR 1254, Method: STANDARD PLATE",active; positive
same,mutagenic call,"Test System: AMES SALMONELLA TYPHIMURIUM, Strain/Indicator: TA1538, Metabolic Activation: RAT, LIVER, CYTOSOL, Method: STANDARD PLATE",active; positive
same,mutagenic call,"Test System: AMES SALMONELLA TYPHIMURIUM, Strain/Indicator: TA1538, Metabolic Activation: RAT, LIVER, MICROSOMES, 2-ACETYLAMINOFLUORENE, Method: STANDARD PLATE",active; positive
same,mutagenic call,"Test System: AMES SALMONELLA TYPHIMURIUM, Strain/Indicator: TA1538, Metabolic Activation: RAT, LIVER, MICROSOMES, AROCLOR 1254, Method: STANDARD PLATE",active; positive
same,mutagenic call,"Test System: AMES SALMONELLA TYPHIMURIUM, Strain/Indicator: TA1538, Metabolic Activation: RAT, LIVER, MICROSOMES, Method: STANDARD PLATE",active; positive
same,mutagenic call,"Test System: AMES SALMONELLA TYPHIMURIUM, Strain/Indicator: TA1538, Metabolic Activation: RAT, LIVER, S-9, AROCLOR 1254, Method: STANDARD PLATE",active; positive
same,mutagenic call,"Test System: AMES SALMONELLA TYPHIMURIUM, Strain/Indicator: TA1538, Metabolic Activation: RAT, LIVER, S-9, KC500 OR PHENOBARBITAL, Method: LIQUID SUSPENSION",active; positive
same,mutagenic call,"Test System: AMES SALMONELLA TYPHIMURIUM, Strain/Indicator: TA1538, Metabolic Activation: RAT, LIVER, S-9, PHENOBARBITAL, Method: STANDARD PLATE",active; positive
same,mutagenic call,"Test System: AMES SALMONELLA TYPHIMURIUM, Strain/Indicator: YG1024, Metabolic Activation: HUMAN, HEPATOMA CELLS, BENZO[A]ANTHRACENE, Method: PREINCUBATION",active; positive
same,mutagenic call,"Test System: AMES SALMONELLA TYPHIMURIUM, Strain/Indicator: YG1024, Metabolic Activation: HUMAN, HEPATOMA CELLS, Method: PREINCUBATION",active; positive
same,mutagenic call,"Test System: AMES SALMONELLA TYPHIMURIUM, Strain/Indicator: YG1024, Metabolic Activation: RAT, LIVER, S-9, AROCLOR 1254, Method: PREINCUBATION",active; positive
same,mutagenic call,"Test System: AMES SALMONELLA TYPHIMURIUM, Strain/Indicator: YG1024, Metabolic Activation: RAT, LIVER, S-9, Method: PREINCUBATION",active; positive
same,mutagenic call,"Test System: CHINESE HAMSTER OVARY, Strain/Indicator: AS52/6-THIOGUANINE, Metabolic Activation: NONE",inactive; negative
same,mutagenic call,"Test System: CHINESE HAMSTER OVARY, Strain/Indicator: AS52/6-THIOGUANINE, Metabolic Activation: RAT LIVER S-9, 2-ACETYLAMINOFLUORENE",active; positive
same,mutagenic call,"Test System: CHINESE HAMSTER OVARY, Strain/Indicator: CHO-K1-BH4 (HGPRT), Metabolic Activation: RAT, LIVER, S-9, AROCLOR, Method: SUSPENSION/PLATE",active; positive
same,mutagenic call,"Test System: CHINESE HAMSTER V-79, Strain/Indicator: V-79/6-THIOGUANINE, Metabolic Activation: HAMSTER, LIVER, S-9, AROCLOR 1254, Method: SUSPENSION/PLATE",inactive; negative
same,mutagenic call,"Test System: CHINESE HAMSTER V-79, Strain/Indicator: V-79/6-THIOGUANINE, Metabolic Activation: NONE, Method: SUSPENSION/PLATE",inactive; negative
same,mutagenic call,"Test System: CHINESE HAMSTER V-79, Strain/Indicator: V-79/6-THIOGUANINE, Metabolic Activation: RAT, LIVER, S-9, PHENOBARBITAL AND BETA-NAPHTHOFLAVONE, Method: SUSPENSION/PLATE",inactive; negative
same,mutagenic call,"Test System: E. COLI, Strain/Indicator: WP2 UVRA, Metabolic Activation: HAMSTER, LIVER, S-9, Method: STANDARD PLATE",inactive; negative
same,mutagenic call,"Test System: E. COLI, Strain/Indicator: WP2 UVRA, Metabolic Activation: MOUSE, LIVER, S-9, Method: STANDARD PLATE",inactive; negative
same,mutagenic call,"Test System: E. COLI, Strain/Indicator: WP2 UVRA, Metabolic Activation: NONE, Method: STANDARD PLATE",inactive; negative
same,mutagenic call,"Test System: E. COLI, Strain/Indicator: WP2 UVRA, Metabolic Activation: RAT, LIVER, S-9, AROCLOR 1254, Method: STANDARD PLATE",inactive; negative
same,mutagenic call,"Test System: E. COLI, Strain/Indicator: WP2 UVRA, Metabolic Activation: RAT, LIVER, S-9, Method: STANDARD PLATE",inactive; negative
same,mutagenic call,"Test System: MOUSE LYMPHOMA, Strain/Indicator: L5178Y (TK+/TK-), Metabolic Activation: NONE, Method: SUSPENSION/PLATE",active; positive
same,mutagenic call,"Test System: MOUSE LYMPHOMA, Strain/Indicator: L5178Y (TK+/TK-), Metabolic Activation: RAT, LIVER, S-9, AROCLOR 1254, Method: SUSPENSION/PLATE",active; positive
same,mutagenic call,"Test System: MOUSE LYMPHOMA, Strain/Indicator: L5178Y (TK+/TK-), Metabolic Activation: RAT, LIVER, S-9, Method: SUSPENSION/PLATE",active; positive
same,mutagenic call,"Test System: UDS GUINEA PIG HEPATOCYTES, Strain/Indicator: THY INCORP, Metabolic Activation: NONE, Method: AUTORADIOGRAPHY",active; positive
same,mutagenic call,"Test System: UDS GUINEA PIG HEPATOCYTES, Strain/Indicator: THY INCORP, Metabolic Activation: NONE, Method: LIQUID SCINTILLATION COUNTING",active; positive
same,mutagenic call,"Test System: UDS HAMSTER HEPATOCYTES, Strain/Indicator: THY INCORP, Metabolic Activation: NONE, Method: LIQUID SCINTILLATION COUNTING",active; positive
same,mutagenic call,"Test System: UDS HUMAN FIBROBLASTS, Strain/Indicator: THY INCORP (NON-S-PHASE), Metabolic Activation: NONE, Method: AUTORADIOGRAPHY",active; positive
same,mutagenic call,"Test System: UDS HUMAN HEPATOCYTES, Strain/Indicator: THY INCORP, Metabolic Activation: NONE, Method: AUTORADIOGRAPHY",active; positive
same,mutagenic call,"Test System: UDS MONKEY HEPATOCYTES, Strain/Indicator: THY INCORP, Metabolic Activation: NONE, Method: AUTORADIOGRAPHY",inactive; negative
same,mutagenic call,"Test System: UDS MOUSE HEPATOCYTES, Strain/Indicator: THY INCORP, Metabolic Activation: NONE, Method: LIQUID SCINTILLATION COUNTING",inactive; negative
same,mutagenic call,"Test System: UDS RAT HEPATOCYTES, Strain/Indicator: BROMODEOXYURIDINE INCORP, Metabolic Activation: NONE, Method: FLOW CYTOMETRIC ANALYSIS",active; positive
same,mutagenic call,"Test System: UDS RAT HEPATOCYTES, Strain/Indicator: THY INCORP, Metabolic Activation: AROCLOR 1254, Method: AUTORADIOGRAPHY",active; positive
same,mutagenic call,"Test System: UDS RAT HEPATOCYTES, Strain/Indicator: THY INCORP, Metabolic Activation: NONE, Method: AUTORADIOGRAPHY",active; positive
same,mutagenic call,"Test System: UDS RAT HEPATOCYTES, Strain/Indicator: THY INCORP, Metabolic Activation: NONE, Method: AUTORADIOGRAPHY (SERUM-FREE MEDIA)",active; positive
same,mutagenic call,"Test System: UDS RAT HEPATOCYTES, Strain/Indicator: THY INCORP, Metabolic Activation: NONE, Method: IN VIVO",active; positive
same,mutagenic call,"Test System: UDS RAT HEPATOCYTES, Strain/Indicator: THY INCORP, Metabolic Activation: NONE, Method: LIQUID SCINTILLATION",active; positive
same,mutagenic call,"Test System: UDS RAT HEPATOCYTES, Strain/Indicator: THY INCORP, Metabolic Activation: NONE, Method: LIQUID SCINTILLATION COUNTING",active; positive
same,mutagenic call,"Test System: UDS RODENT HEPATOCYTES, Strain/Indicator: THY INCORP (NON-S-PHASE), Metabolic Activation: NONE, Method: AUTORADIOGRAPHY",active; positive
same,mutagenic call,"Test System: UDS RODENT HEPATOCYTES, Strain/Indicator: THY INCORP (NON-S-PHASE), Method: AUTORADIOGRAPHY",active; positive
same,mutagenic call,"Test System: UDS RODENT HEPATOCYTES, Strain/Indicator: THY INCORP (NON-S-PHASE), Method: LIQUID SCINTILLATION COUNTING",active; positive
same,mutagenic call,"Test System: UDS, Strain/Indicator: HEPG2/THYMIDINE INCORPORATION, Metabolic Activation: NONE, Method: AUTORADIOGRAPHY",active; positive
